Reference: paper PMC7383625, “Sequence‐Based Prediction of Promiscuous Acyltransferase Activity in Hydrolases” (Angewandte Chemie (International Ed. in English), 2020)

Legend:
Type in all cases: biochemical
[1] = target: T1, Est8 (uncultured bacterium, UniProt Z9EH37ATT5); experiment: GC of 2-phenylethyl acetate formation; conditions: acyl acceptor, 20 mM; vinyl acetate 200 mM as acyl donor; 200 mM buffer at pH optimum
T1 construct: bHSL esterase with N-terminal cap domain; crystal structure solved here
T1 sequence (Z9EH37ATT5 1-297): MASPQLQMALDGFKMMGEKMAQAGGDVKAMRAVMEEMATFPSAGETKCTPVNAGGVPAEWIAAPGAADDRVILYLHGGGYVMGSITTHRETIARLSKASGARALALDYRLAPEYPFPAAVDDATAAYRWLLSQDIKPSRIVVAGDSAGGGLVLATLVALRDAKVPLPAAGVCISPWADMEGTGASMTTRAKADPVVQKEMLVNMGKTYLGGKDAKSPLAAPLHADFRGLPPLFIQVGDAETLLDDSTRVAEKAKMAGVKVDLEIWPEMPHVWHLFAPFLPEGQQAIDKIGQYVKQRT

[2] = target: T2, 4XVC (uncultured bacterium, UniProt Z9PJA9OM60); experiment: colorimetric pNPA acyltransferase assay, pNP release at […] nm; conditions: acyl donor; benzyl alcohol or 2-phenylethanol as acyl acceptor
T2 construct: named only by PDB code; construct in supplement
T2 sequence (Z9PJA9OM60 21-317): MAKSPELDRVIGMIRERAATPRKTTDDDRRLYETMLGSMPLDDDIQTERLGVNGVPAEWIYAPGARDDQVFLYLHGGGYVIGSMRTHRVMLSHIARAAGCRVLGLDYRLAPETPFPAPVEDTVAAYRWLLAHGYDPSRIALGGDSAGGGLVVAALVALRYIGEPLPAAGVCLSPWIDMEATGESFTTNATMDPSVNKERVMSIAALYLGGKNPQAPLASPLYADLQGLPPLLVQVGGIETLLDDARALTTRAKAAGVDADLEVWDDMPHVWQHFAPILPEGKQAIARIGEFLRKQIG

[3] = target: T3, 3ZWQ (Pyrobaculum calidifontis, UniProt A3MVR4); experiment: as above; conditions: acyl donor; benzyl alcohol or 2-phenylethanol as acyl acceptor
T3 construct: gene Pcal_1307; named only by PDB code; construct in supplement
T3 sequence (A3MVR4 1-313): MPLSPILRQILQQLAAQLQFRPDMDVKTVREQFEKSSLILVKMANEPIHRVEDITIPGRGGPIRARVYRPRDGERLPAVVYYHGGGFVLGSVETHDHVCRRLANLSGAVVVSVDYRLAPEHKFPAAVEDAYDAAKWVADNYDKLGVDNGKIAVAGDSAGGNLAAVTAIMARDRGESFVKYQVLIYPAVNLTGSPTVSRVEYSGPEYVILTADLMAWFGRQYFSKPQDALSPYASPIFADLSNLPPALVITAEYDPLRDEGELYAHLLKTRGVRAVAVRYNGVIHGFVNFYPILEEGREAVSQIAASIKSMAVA

[4] = target: T4, 3K6K (uncultured bacterium, UniProt Z9ICY0V5A2); experiment: as above; conditions: acyl donor; benzyl alcohol or 2-phenylethanol as acyl acceptor
T4 construct: named only by PDB code; construct in supplement
T4 sequence (Z9ICY0V5A2 15-328): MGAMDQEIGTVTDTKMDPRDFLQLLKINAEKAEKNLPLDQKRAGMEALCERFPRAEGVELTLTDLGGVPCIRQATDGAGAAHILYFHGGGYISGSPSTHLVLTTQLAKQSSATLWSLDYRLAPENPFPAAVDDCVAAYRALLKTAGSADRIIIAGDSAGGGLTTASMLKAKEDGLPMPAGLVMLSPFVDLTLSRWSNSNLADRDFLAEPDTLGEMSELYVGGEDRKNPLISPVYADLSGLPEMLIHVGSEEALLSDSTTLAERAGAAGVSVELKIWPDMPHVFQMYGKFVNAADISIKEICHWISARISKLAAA

[5] = target: T1, Est8; experiment: as above; conditions: acyl donor; benzyl alcohol or 2-phenylethanol as acyl acceptor
[6] = target: T5, 3FAK (uncultured bacterium, UniProt Q0GMU2); experiment: as above; conditions: acyl donor; benzyl alcohol or 2-phenylethanol as acyl acceptor
T5 construct: named only by PDB code; construct in supplement
T5 sequence (Q0GMU2 with tags, fused parts or gaps): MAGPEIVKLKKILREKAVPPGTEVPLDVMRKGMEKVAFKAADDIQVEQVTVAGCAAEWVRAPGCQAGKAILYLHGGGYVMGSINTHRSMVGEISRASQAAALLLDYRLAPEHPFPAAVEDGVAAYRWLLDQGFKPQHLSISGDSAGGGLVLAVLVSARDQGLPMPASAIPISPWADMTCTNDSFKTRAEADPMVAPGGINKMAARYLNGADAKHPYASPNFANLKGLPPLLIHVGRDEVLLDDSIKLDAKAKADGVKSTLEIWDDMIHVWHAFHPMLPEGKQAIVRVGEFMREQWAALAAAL

Compound | GC of 2-phenylethyl acetate formation [1] | colorimetric pNPA acyltransferase assay, pNP release at 405 nm [2] | colorimetric pNPA acyltransferase assay, pNP release at 405 nm [3] | colorimetric pNPA acyltransferase assay, pNP release at 405 nm [4] | colorimetric pNPA acyltransferase assay, pNP release at 405 nm [5] | colorimetric pNPA acyltransferase assay, pNP release at 405 nm [6]
OCCc1ccccc1 [2-phenylethanol] | For Est8, product hydrolysis became more dominant than acyl transfer quickly |  |  |  |  | 
CC(=O)Oc1ccc([N+](=O)[O-])cc1 [pNPA] |  | reactions were carried out for Est8 and its homologues using both benzyl alcohol | 3ZWQ showed three‐fold higher acyltransferase activity with benzyl alcohol, outperforming 1EVQ | reactions were carried out for Est8 and its homologues using both benzyl alcohol | reactions were carried out for Est8 and its homologues using both benzyl alcohol | reactions were carried out for Est8 and its homologues using both benzyl alcohol
